# In ChEMBL document CHEMBL1201862, “PubChem BioAssay data set” (2004):
#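 Grown in 96-well plates, cells were treated for 48 hours with each compound at five concentrations. Insufficient inhibition: endpoint recorded as highest concentration tested. Here, GI50 denotes the concentration required for 50% inhibition of growth.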 Calls of active or inactive are those of the source. No stated cut-off is given here; in the data, active = GI50 up to about 1.1 µM and inactive = higher.
# Key:
# Experiment in all cases: NCI tumour cell line growth inhibition, 48 h
# [1] = system: SN12C
# [2] = system: CCRF-CEM
# [3] = system: Hs-578T
# [4] = system: IGROV-1
# [5] = system: M14
# [6] = system: MDA-MB-435
# [7] = system: A498
# [8] = system: K562
# [9] = system: SF-539
# [10] = system: EKVX
# [11] = system: NCI-H522
# [12] = system: U-251
# [13] = system: SK-MEL-5
# [14] = system: SNB-19
# [15] = system: SK-MEL-28
# [16] = system: SK-OV-3
# [17] = system: ACHN
# [18] = system: MDA-N
# [19] = system: SW-620
# [20] = system: Malme-3M
Compound,GI50 [1],GI50 [2],GI50 [3],GI50 [4],GI50 [5],GI50 [6],GI50 [7],GI50 [8],GI50 [9],GI50 [10],GI50 [11],GI50 [12],GI50 [13],GI50 [14],GI50 [15],GI50 [16],GI50 [17],GI50 [18],GI50 [19],GI50 [20]
OC1(c2ccccc2)CCN(Cc2c[nH]c3ccccc23)CC1,> 100 µM (inactive),> 100 µM (inactive),> 100 µM (inactive),> 100 µM (inactive),17.5 µM (inactive),37.2 µM (inactive),92.3 µM (inactive),33.2 µM (inactive),79.3 µM (inactive),> 100 µM (inactive),> 100 µM (inactive),64.4 µM (inactive),36.3 µM (inactive),> 100 µM (inactive),20.7 µM (inactive),> 100 µM (inactive),> 100 µM (inactive),30.7 µM (inactive),> 100 µM (inactive),23.2 µM (inactive)
CC(=O)C1=C(C)N2C(=NC3=C(CCc4ccccc43)C2c2ccc(Cl)cc2)S1 (stereo not given),> 100 µM (inactive),8.41 µM (inactive),> 64 µM (inactive),12.3 µM (inactive),> 40.4 µM (inactive),> 43.1 µM (inactive),20.7 µM (inactive),2.05 µM (inactive),> 92.9 µM (inactive),46.8 µM (inactive),6.53 µM (inactive),> 67.5 µM (inactive),26.1 µM (inactive),> 100 µM (inactive),> 100 µM (inactive),> 100 µM (inactive),> 100 µM (inactive),46.8 µM (inactive),> 33.3 µM (inactive),48.5 µM (inactive)
N#Cc1nc(C#N)c(N)[nH]1,> 100 µM (inactive),> 100 µM (inactive),> 100 µM (inactive),> 100 µM (inactive),> 100 µM (inactive),> 100 µM (inactive),> 100 µM (inactive),> 100 µM (inactive),> 100 µM (inactive),> 100 µM (inactive),> 100 µM (inactive),> 100 µM (inactive),> 100 µM (inactive),> 100 µM (inactive),> 100 µM (inactive),> 100 µM (inactive),> 100 µM (inactive),> 100 µM (inactive),> 100 µM (inactive),> 100 µM (inactive)
O=C(NCCCN(CCCCN(CCCNC(=O)C(F)(F)F)CCCc1ccccc1)CCCc1ccccc1)C(F)(F)F,2.08 µM (inactive),4.63 µM (inactive),2.02 µM (inactive),1.83 µM (inactive),1.76 µM (inactive),1.76 µM (inactive),2.21 µM (inactive),2.87 µM (inactive),1.57 µM (inactive),1.68 µM (inactive),1.78 µM (inactive),1.6 µM (inactive),1.69 µM (inactive),2 µM (inactive),1.64 µM (inactive),2.49 µM (inactive),2 µM (inactive),1.65 µM (inactive),1.98 µM (inactive),1.75 µM (inactive)
COc1cc(/C=N/N=C2NCCCCN2)ccc1O,> 100 µM (inactive),> 100 µM (inactive),> 100 µM (inactive),> 100 µM (inactive),> 100 µM (inactive),> 100 µM (inactive),96.2 µM (inactive),58.7 µM (inactive),> 100 µM (inactive),> 100 µM (inactive),> 100 µM (inactive),> 100 µM (inactive),40 µM (inactive),> 100 µM (inactive),> 100 µM (inactive),> 100 µM (inactive),> 100 µM (inactive),> 100 µM (inactive),> 100 µM (inactive),> 100 µM (inactive)
COC(=O)C1=C(O)C(C(=O)OC)[C@@]2(O)[C@@H](C(=O)OC)C(c3ccc(OC(=O)/C=C/c4ccccc4)cc3)C[C@@H]1[C@@H]2C(=O)OC (stereo not given in full),7.11 µM (inactive),2.68 µM (inactive),68.4 µM (inactive),8.04 µM (inactive),6.84 µM (inactive),4.83 µM (inactive),34.8 µM (inactive),5.79 µM (inactive),3.43 µM (inactive),12.3 µM (inactive),5.3 µM (inactive),6.15 µM (inactive),10.6 µM (inactive),20.6 µM (inactive),20 µM (inactive),75.5 µM (inactive),18.9 µM (inactive),3.24 µM (inactive),6.01 µM (inactive),25.1 µM (inactive)
CN(C)CCn1c(=O)c2ccc(NCCNCCO)c3c(=O)c4cc(O)ccc4n(c1=O)c23,0.308 µM (active),0.258 µM (active),0.667 µM (active),1.05 µM (active),2.69 µM (inactive),2.39 µM (inactive),1.93 µM (inactive),0.991 µM (active),0.367 µM (active),2.58 µM (inactive),0.281 µM (active),0.931 µM (active),1.49 µM (inactive),1.04 µM (active),4.43 µM (inactive),5.55 µM (inactive),0.571 µM (active),2.2 µM (inactive),0.532 µM (active),2.42 µM (inactive)
